Blank lines part the entries; values can stand above or below the compound they belong to.
Columns and labels:
[1] = molecular target: T1, Metabotropic glutamate receptor 4 (Homo sapiens, UniProt Q14833); assay: Positive allosteric modulation of human mGluR4 expressed in CHO-K1 cells assessed as decrease in forskolin-induced intracellular cAMP accumulation after 1 hr by fluorescence assay; assay type: functional, cell-based
[2] = molecular target: T1, Metabotropic glutamate receptor 4; assay: Positive allosteric modulation of human mGluR4 expressed in CHO-K1 cells assessed as decrease in forskolin-induced intracellular cAMP accumulation after 1 hr by fluorescence assay relative to (-)-PHCC; assay type: functional, cell-based
[3] = Drug level in rat brain at 30 mg/kg, po measured at 30 mins post dose; assay type: ADME, organism-based; design: dose 30 mg/kg, route oral; details: read-out: Drug uptake
[4] = Ratio of drug level in brain to plasma in rat at 30 mg/kg, po measured at 30 mins post dose; assay type: ADME, organism-based; design: dose 30 mg/kg, route oral; details: read-out: BPR
[5] = molecular target: T1, Metabotropic glutamate receptor 4; assay: Agonist activity at human mGluR4 expressed in CHO-K1 cells; assay type: functional, cell-based
[6] = molecular target: T2, Metabotropic glutamate receptor 5 (Homo sapiens, UniProt P41594); assay: Negative allosteric modulation of human mGluR5 expressed in CHO-K1 cells; assay type: cell-based
[7] = molecular target: T2, Metabotropic glutamate receptor 5; assay: Positive allosteric modulation of human mGluR5 expressed in CHO-K1 cells; assay type: cell-based
[8] = molecular target: T2, Metabotropic glutamate receptor 5; assay: Agonist activity at human mGluR5 expressed in CHO-K1 cells in absence of glutamate; assay type: functional, cell-based
[9] = molecular target: Metabotropic glutamate receptor 4 (Rattus norvegicus, UniProt P31423); assay: Positive allosteric modulation of rat mGluR4 expressed in CHO-K1 cells; assay type: cell-based
[10] = molecular target: Metabotropic glutamate receptor 5 (Rattus norvegicus, UniProt P31424); assay: Negative allosteric modulation of rat mGluR5 expressed in CHO-K1 cells; assay type: cell-based
[11] = molecular target: Adenosine receptor A2a (Homo sapiens) (UniProt P29274); assay: Activity at adenosine A2A receptor at 10 uM
[12] = molecular target: T3, 5-hydroxytryptamine receptor 1A (Homo sapiens) (UniProt P08908); assay: Activity at 5HT1A receptor at 10 uM
T3 sequence (whole entry): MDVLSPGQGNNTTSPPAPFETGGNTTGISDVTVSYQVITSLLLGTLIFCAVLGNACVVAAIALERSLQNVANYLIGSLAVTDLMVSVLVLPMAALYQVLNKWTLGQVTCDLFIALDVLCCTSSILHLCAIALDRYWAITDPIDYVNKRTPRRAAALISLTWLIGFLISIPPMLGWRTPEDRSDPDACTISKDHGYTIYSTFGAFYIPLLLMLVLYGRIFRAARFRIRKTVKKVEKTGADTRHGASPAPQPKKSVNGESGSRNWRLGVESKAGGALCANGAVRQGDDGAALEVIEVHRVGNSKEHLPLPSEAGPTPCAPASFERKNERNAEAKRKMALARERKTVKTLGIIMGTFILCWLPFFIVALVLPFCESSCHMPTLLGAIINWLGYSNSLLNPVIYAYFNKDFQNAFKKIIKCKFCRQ

[13] = molecular target: T4, Alpha-2A adrenergic receptor (Homo sapiens) (UniProt P08913); assay: Activity at adrenergic alpha 2A receptor at 10 uM
T4 sequence (whole entry): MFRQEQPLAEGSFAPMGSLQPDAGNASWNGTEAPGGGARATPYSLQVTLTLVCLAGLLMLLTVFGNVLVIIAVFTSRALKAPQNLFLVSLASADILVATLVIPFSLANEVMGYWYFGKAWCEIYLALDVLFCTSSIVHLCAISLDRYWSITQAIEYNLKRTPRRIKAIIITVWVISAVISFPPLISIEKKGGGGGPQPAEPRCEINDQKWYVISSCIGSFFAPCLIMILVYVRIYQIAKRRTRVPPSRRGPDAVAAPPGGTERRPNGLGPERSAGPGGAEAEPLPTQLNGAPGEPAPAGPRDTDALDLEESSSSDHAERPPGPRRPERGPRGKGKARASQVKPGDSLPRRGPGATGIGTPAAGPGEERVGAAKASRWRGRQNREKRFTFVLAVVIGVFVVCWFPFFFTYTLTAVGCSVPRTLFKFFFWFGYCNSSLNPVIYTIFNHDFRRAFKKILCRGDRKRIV

[14] = Permeability from apical to basolateral side of human Caco-2 cells; assay type: ADME, cell-based; details: read-out: permeability
[15] = Permeability from basolateral to apical side of human Caco-2 cells; assay type: ADME, cell-based; details: read-out: permeability
[16] = Plasma protein binding in rat; assay type: ADME, cell-free; details: read-out: PPB (converted)
[17] = Metabolic stability in human microsomes; assay type: ADME, Microsome
[18] = Metabolic stability in rat microsomes; assay type: ADME, Microsome
[19] = species on record: Rattus norvegicus; assay: Hepatic blood flow in rat; assay type: ADME, organism-based, Liver
[20] = species on record: Homo sapiens; assay: Hepatic blood flow in human; assay type: ADME, organism-based, Liver
[21] = Clearance in rat at 2 mg/kg, iv; assay type: ADME, organism-based; design: dose 2 mg/kg, route intravenous; details: in vivo
[22] = Volume of distribution in rat at 2 mg/kg, iv; assay type: ADME, organism-based; design: dose 2 mg/kg, route intravenous; details: in vivo
[23] = Mean residence time in rat at 2 mg/kg, iv; assay type: ADME, organism-based; design: dose 2 mg/kg, route intravenous; details: in vivo, read-out: Time
[24] = Oral bioavailability in rat at 30 mg/kg, po after 30 mins; assay type: ADME, organism-based; details: in vivo
[25] = Drug level in rat plasma at 30 mg/kg, po measured at 30 mins post dose; assay type: ADME, organism-based; design: dose 30 mg/kg, route oral; details: read-out: Drug uptake
[26] = Drug level in rat CSF at 30 mg/kg, po measured at 30 mins post dose; assay type: ADME, organism-based, Cerebrospinal fluid; design: dose 30 mg/kg, route oral; details: read-out: Drug uptake
[27] = molecular target: Cytochrome P450 3A4 (Homo sapiens, UniProt P08684); assay: Inhibition of CYP3A4 up to 50 uM; assay type: ADME
[28] = molecular target: Cytochrome P450 2D6 (Homo sapiens, UniProt P10635); assay: Inhibition of CYP2D6 up to 50 uM; assay type: ADME
[29] = molecular target: Cytochrome P450 2C9 (Homo sapiens, UniProt P11712); assay: Inhibition of CYP2C9 up to 50 uM; assay type: ADME
[30] = molecular target: Cytochrome P450 2C19 (Homo sapiens, UniProt P33261); assay: Inhibition of CYP2C19 up to 50 uM; assay type: ADME
[31] = test system: Rattus norvegicus; assay: Inhibition of haloperidol-induced catalepsy in po dosed rat administered 30 mins before haloperidol challenge; assay type: functional, organism-based

T1 sequence (Q14833 whole entry): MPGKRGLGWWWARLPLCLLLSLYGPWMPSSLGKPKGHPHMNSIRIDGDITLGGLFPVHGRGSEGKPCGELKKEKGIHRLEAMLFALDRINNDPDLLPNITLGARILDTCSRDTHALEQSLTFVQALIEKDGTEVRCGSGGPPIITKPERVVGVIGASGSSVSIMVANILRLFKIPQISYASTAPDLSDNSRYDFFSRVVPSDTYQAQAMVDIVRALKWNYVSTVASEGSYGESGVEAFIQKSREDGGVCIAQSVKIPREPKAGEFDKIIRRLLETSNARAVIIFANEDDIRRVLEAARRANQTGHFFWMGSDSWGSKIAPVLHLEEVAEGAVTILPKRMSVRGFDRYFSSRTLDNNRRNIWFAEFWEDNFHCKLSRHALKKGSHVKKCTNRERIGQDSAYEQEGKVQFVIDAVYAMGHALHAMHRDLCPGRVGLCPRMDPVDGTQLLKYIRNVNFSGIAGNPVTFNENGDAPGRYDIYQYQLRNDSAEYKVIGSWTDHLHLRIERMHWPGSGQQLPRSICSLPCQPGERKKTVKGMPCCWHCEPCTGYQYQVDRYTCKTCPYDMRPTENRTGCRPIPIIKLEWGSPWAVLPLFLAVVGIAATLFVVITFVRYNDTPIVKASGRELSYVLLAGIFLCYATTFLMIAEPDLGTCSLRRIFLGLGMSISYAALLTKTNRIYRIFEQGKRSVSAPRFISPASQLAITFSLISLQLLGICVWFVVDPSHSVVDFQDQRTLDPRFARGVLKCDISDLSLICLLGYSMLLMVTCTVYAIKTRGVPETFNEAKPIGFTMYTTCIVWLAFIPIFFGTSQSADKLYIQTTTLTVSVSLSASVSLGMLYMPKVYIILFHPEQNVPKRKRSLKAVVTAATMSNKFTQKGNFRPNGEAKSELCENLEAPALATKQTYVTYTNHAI
T2 sequence (P41594 whole entry): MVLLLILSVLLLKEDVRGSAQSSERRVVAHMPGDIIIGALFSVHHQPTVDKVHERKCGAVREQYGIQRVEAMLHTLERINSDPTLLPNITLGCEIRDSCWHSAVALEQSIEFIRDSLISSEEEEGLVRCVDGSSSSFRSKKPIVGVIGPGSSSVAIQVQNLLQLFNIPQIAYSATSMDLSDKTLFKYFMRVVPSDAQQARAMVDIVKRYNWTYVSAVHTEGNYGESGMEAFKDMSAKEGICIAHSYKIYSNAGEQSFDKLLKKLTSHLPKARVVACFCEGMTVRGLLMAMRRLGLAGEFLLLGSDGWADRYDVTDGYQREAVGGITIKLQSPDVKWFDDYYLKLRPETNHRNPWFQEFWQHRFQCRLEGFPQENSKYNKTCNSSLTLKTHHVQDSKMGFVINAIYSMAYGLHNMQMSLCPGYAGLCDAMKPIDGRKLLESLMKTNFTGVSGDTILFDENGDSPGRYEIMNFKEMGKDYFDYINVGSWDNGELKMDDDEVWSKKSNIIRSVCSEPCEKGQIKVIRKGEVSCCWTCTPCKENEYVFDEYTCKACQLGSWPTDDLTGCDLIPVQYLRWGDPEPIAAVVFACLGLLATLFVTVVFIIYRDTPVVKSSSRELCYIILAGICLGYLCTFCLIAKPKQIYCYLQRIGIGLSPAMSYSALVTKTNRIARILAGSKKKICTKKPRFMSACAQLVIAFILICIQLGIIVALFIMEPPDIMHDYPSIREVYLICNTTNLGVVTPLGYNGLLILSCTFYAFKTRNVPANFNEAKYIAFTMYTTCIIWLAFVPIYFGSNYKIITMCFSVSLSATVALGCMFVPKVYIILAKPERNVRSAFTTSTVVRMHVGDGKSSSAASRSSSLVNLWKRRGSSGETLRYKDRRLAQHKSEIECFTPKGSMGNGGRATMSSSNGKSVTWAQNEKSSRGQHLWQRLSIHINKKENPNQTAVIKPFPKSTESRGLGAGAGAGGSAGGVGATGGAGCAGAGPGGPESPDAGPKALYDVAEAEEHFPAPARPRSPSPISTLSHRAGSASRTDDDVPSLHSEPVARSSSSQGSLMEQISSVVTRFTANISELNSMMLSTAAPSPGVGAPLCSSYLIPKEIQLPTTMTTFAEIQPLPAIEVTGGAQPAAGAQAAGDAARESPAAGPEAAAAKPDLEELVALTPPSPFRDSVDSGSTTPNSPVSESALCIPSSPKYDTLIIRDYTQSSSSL
Cytochrome P450 3A4, sequence (P08684 whole entry): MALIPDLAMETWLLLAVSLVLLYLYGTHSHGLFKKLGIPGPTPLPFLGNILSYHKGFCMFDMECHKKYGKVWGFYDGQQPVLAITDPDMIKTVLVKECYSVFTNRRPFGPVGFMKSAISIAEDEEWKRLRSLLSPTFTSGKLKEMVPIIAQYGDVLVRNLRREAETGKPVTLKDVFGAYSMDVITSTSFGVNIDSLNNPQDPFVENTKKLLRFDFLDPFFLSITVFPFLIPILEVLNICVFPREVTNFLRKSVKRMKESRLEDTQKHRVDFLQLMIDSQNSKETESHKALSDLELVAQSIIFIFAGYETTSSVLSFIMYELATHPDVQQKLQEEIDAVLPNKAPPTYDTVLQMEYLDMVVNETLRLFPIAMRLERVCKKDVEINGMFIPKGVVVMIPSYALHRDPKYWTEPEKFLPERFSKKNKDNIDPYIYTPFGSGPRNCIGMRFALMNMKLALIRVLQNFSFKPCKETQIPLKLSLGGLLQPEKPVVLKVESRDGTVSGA
Cytochrome P450 2D6, sequence (P10635 whole entry): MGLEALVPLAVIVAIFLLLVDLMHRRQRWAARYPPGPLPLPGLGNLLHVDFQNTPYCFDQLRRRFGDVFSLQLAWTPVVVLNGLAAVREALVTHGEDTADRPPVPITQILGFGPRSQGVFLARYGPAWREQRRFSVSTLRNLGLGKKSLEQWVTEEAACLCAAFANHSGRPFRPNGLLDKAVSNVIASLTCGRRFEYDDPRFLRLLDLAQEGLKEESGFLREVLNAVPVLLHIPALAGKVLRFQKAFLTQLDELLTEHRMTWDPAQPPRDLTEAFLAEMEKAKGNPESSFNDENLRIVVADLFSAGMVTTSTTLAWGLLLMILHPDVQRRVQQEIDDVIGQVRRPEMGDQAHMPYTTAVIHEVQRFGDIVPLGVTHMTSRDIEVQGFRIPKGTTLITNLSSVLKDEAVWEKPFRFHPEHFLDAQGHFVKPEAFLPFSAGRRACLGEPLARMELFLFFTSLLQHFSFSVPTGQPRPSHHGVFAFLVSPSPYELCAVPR
Cytochrome P450 2C9, sequence (P11712 whole entry): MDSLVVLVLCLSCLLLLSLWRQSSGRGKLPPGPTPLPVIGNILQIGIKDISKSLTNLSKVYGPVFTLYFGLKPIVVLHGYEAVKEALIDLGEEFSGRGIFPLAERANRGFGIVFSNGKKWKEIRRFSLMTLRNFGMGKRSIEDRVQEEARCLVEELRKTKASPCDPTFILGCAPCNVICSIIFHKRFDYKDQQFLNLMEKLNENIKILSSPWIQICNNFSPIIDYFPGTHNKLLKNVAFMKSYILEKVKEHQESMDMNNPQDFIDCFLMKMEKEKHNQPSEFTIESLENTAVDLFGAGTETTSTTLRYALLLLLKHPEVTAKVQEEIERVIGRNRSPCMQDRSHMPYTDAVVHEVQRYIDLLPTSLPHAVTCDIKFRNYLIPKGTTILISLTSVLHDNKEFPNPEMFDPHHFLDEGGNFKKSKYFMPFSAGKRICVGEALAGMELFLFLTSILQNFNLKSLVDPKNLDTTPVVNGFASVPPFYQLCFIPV
Metabotropic glutamate receptor 4 (Rattus norvegicus, UniProt P31423), sequence (P31423 whole entry): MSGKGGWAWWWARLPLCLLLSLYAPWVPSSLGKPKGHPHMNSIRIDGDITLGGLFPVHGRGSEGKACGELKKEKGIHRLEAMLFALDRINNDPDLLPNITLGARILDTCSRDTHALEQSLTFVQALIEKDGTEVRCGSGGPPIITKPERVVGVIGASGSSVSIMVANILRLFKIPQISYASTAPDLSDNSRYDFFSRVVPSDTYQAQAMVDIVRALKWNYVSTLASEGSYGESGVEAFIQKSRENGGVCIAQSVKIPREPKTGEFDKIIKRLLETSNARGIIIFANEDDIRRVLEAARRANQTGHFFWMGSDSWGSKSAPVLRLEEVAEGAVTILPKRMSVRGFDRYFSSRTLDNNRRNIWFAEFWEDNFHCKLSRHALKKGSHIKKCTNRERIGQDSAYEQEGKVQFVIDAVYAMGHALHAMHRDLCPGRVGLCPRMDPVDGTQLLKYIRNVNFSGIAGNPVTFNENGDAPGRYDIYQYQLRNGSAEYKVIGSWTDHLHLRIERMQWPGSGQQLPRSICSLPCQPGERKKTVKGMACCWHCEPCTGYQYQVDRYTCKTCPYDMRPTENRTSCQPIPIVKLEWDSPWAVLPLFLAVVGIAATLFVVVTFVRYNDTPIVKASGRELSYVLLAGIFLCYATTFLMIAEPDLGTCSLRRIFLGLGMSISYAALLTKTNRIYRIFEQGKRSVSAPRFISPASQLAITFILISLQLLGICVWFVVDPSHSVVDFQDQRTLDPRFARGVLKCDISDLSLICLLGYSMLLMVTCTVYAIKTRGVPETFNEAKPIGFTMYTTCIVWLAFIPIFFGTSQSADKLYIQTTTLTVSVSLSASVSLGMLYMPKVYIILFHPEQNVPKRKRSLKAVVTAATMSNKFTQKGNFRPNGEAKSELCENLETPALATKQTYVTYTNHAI
Adenosine receptor A2a (Homo sapiens), sequence (P29274 whole entry): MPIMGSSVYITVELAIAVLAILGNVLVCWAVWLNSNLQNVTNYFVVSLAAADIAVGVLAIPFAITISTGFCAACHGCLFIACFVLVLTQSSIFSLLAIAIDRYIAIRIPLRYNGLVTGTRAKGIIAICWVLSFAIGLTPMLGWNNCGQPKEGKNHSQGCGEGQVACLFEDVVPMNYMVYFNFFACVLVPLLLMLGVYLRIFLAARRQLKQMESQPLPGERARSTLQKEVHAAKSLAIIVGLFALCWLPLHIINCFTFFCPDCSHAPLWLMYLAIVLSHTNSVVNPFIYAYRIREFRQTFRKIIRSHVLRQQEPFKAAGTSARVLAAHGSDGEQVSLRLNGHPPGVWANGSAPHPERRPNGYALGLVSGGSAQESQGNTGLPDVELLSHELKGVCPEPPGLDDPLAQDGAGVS

EC50 [1]: > 30 µM
SMILES: N#Cc1ccc(/C=C/c2ccnc(N)n2)cc1

EC50 [1]: 0.6 µM
Emax [2]: 95%
SMILES: Nc1nc(/C=C/c2ccccc2)cc(C(F)(F)F)n1

EC50 [1]: 1.3 µM
Emax [2]: 94%
SMILES: Nc1ncc(Br)c(/C=C/c2ccccc2)n1

EC50 [1]: 6.9 µM
Emax [2]: 67%
SMILES: Cc1nccc(/C=C/c2ccccc2)n1

EC50 [1]: 9.4 µM
Emax [2]: 94%
SMILES: Nc1nccc(/C=C/c2ccco2)n1

EC50 [1]: > 30 µM
SMILES: Nc1nccc(-c2cc3ccccc3s2)n1

EC50 [1]: > 30 µM
SMILES: Nc1cc(/C=C/c2ccccc2)nc(N)n1

EC50 [1]: 1.6 µM
Emax [2]: 88%
SMILES: Cc1nc(N)nc(/C=C/c2ccccc2)c1C

EC50 [1]: > 30 µM
SMILES: N#Cc1ccccc1/C=C/c1ccnc(N)n1

EC50 [1]: 4.5 µM
Emax [2]: 99%
SMILES: Nc1nccc(/C=C/c2cccc(F)c2)n1

EC50 [1]: > 30 µM
SMILES: Nc1nccc(/C=C/c2ccncc2)n1

EC50 [1]: 5 µM
Emax [2]: 82%
SMILES: CCOC(=O)C(=O)Nc1nccc(/C=C/c2ccccc2)n1

EC50 [1]: 20 µM
Emax [2]: 86%
SMILES: Nc1nccc(C#Cc2ccccc2)n1

EC50 [1]: 0.8 µM
Emax [2]: 99%
SMILES: Cc1cc(/C=C/c2ccccc2)nc(N)n1

EC50 [1]: > 30 µM
SMILES: Cc1ccc(/C=C/c2ccnc(N)n2)cc1

EC50 [1]: 0.2 µM
Emax [2]: 94%
SMILES: Cc1cnc(N)nc1/C=C/c1ccccc1

EC50 [1]: > 30 µM
SMILES: CNc1nccc(/C=C/c2ccccc2)n1

EC50 [1]: > 30 µM
SMILES: Nc1ncc([C@@H]2C[C@H]2c2ccccc2)cn1

EC50 [1]: 2.9 µM
Emax [2]: 101%
SMILES: Nc1nccc(/C=C/c2ccccc2F)n1

EC50 [1]: 2 µM
Emax [2]: 106%
SMILES: COc1cc(/C=C/c2ccccc2)nc(N)n1

concentration at 0.5 h [3]: 33.8 µM
Kp at 0.5 h [4]: 2.9
EC50 [1]: 1 µM
Emax [2]: 106%
EC50 [5]: > 30 µM
IC50 [6]: > 30 µM
EC50 [7]: > 10 µM
EC50 [8]: > 10 µM
EC50 [9]: 1 µM
IC50 [10]: > 10 µM
Activity [11]: > 50%
Activity [12]: > 50%
Activity [13]: > 50%
Papp A→B [14]: 41.9 ×10⁻⁶ cm/s
Papp B→A [15]: 19.6 ×10⁻⁶ cm/s
fraction unbound [16]: 0.1
Stability [17]: 62%
Stability [18]: 62%
QH [19]: 83%
QH [20]: 83%
clearance [21]: 75 mL/min/kg
Vd [22]: 2.7 L/kg
MRT [23]: 36 min
bioavailability [24]: 51%
concentration at 0.5 h [25]: 11.6 µM
concentration at 0.5 h [26]: 0.7 µM
inhibition (INH) [27]: Not Active
inhibition (INH) [28]: Not Active
inhibition (INH) [29]: Not Active
inhibition (INH) [30]: Not Active
SMILES: Nc1nccc(/C=C/c2ccccc2)n1
Activity [31]: Dose-dependent effect
inhibition [31]: Dose-dependent effect

EC50 [1]: 4.5 µM
Emax [2]: 106%
SMILES: Nc1nccc(/C=C/c2ccc(F)cc2)n1

EC50 [1]: 7.8 µM
Emax [2]: 115%
SMILES: Sc1nccc(/C=C/c2ccccc2)n1

EC50 [1]: 5.8 µM
Emax [2]: 92%
SMILES: Nc1cccc(/C=C/c2ccccc2)n1

EC50 [1]: > 30 µM
SMILES: N#Cc1cccc(/C=C/c2ccnc(N)n2)c1

EC50 [1]: > 30 µM
SMILES: Nc1nccc(-c2ccc3ccccc3c2)n1

EC50 [1]: 4.9 µM
Emax [2]: 58%
SMILES: Nc1nccc(-c2cc3ccccc3o2)n1

EC50 [1]: 11.7 µM
Emax [2]: 92%
SMILES: Nc1nccc(/C=C/c2ccccn2)n1

EC50 [1]: > 30 µM
SMILES: Nc1nc(O)cc(/C=C/c2ccccc2)n1

EC50 [1]: 16.4 µM
Emax [2]: 55%
SMILES: Nc1nccc(/C=C/c2cccnc2)n1

EC50 [1]: > 30 µM
SMILES: C(=C\c1ccnc(-c2ccccc2)n1)/c1ccccc1

EC50 [1]: 15.8 µM
Emax [2]: 72%
SMILES: Nc1cncc(/C=C/c2ccccc2)n1

EC50 [1]: 4.1 µM
Emax [2]: 98%
SMILES: Nc1nccc(/C=C/c2cccs2)n1

EC50 [1]: > 30 µM
SMILES: CS(=O)(=O)Nc1nccc(/C=C/c2ccccc2)n1

EC50 [1]: > 30 µM
SMILES: Nc1nccc(CCc2ccccc2)n1

EC50 [1]: 1.6 µM
Emax [2]: 102%
SMILES: Nc1ncc(Cl)c(/C=C/c2ccccc2)n1

EC50 [1]: > 30 µM
SMILES: Cc1ccccc1/C=C/c1ccnc(N)n1

EC50 [1]: > 30 µM
SMILES: Cc1cccc(/C=C/c2ccnc(N)n2)c1

EC50 [1]: > 30 µM
SMILES: CN(C)c1nccc(/C=C/c2ccccc2)n1

From ChEMBL document CHEMBL1208783, “An orally bioavailable positive allosteric modulator of the mGlu4 receptor with efficacy in an animal model of motor dysfunction” (Bioorg Med Chem Lett, 2010)
